Experimental data: the CombiSolv-Exp solvation set (Vermeire and Green 2021)

Assay: solvent given as SMILES

CCC1CCCCC1
Settings | solvation free energy, 298 K [kcal/mol]
in Brc1ccccc1 | -5.2
in C1CCCCC1 | -5.59
in C1CCOC1 | -5.38
in C1COCCO1 | -4.67
in C=CCCCC | -5.39
in C=CCCCCCC | -5.34
in C=CCCCCCCCC | -5.3
in CC1COC(=O)O1 | -3.41
in CC#N | -3.87
in CC(=O)N(C)C | -4.21
in CC(=O)O | -4.16
in CC(=O)c1ccccc1 | -4.54
in CC(C)=O | -4.54
in CC(C)CC(C)(C)C | -5.28
in CC(C)CCCC(C)CCCC(C)CCCCC(C)CCCC(C)CCCC(C)C | -4.99
in CC(C)CCO | -4.74
in CC(C)O | -4.53
in CC(C)OC(C)C | -5.26
in CCBr | -5.53
in CCC#N | -4.51
in CCC(C)=O | -4.81
in CCCC#N | -4.46
in CCCC(=O)OCC | -5.04
in CCCC(C)=O | -4.91
in CCCCC | -5.41
in CCCCCC | -5.42
in CCCCCC(C)=O | -4.96
in CCCCCCC | -5.39
in CCCCCCCC | -5.38
in CCCCCCCCC | -5.31
in CCCCCCCCC=CCCCCCCCC(=O)OCC(COC(=O)CCCCCCCC=CCCCCCCCC)OC(=O)CCCCCCCC=CCCCCCCCC | -5.07
in CCCCCCCCCC | -5.28
in CCCCCCCCCCCC | -5.21
in CCCCCCCCCCCCCCCC | -5.15
in CCCCCCCCO | -4.84
in CCCCCCOC(C)=O | -5.05
in CCCCO | -4.69
in CCCCOC(=O)c1ccccc1C(=O)OCCCC | -4.8
in CCCCOC(C)=O | -4.99
in CCCCOCCCC | -5.24
in CCCO | -4.55
in CCN(CC)CC | -5.43
in CCO | -4.47
in CCOC(=O)c1ccccc1C(=O)OCC | -4.24
in CCOC(C)=O | -4.83
in CCOCC | -5.33
in CCOCCOCCOCC | -4.82
in CCOc1ccccc1 | -4.96
in CN1CCCC1=O | -4.2
in CN(C)C=O | -4.06
in CN(C)P(=O)(N(C)C)N(C)C | -4.49
in CNC=O | -3.73
in CO | -4.05
in COC(C)=O | -4.62
in COCCO | -4.06
in COc1ccccc1 | -4.91
in CS(C)=O | -3.28
in Cc1ccc(C)cc1 | -5.35
in Cc1ccccc1 | -5.37
in Cc1ccccn1 | -5
in ClC(Cl)(Cl)Cl | -5.58
in ClC(Cl)Cl | -5.46
in ClCCCl | -4.91
in ClCCl | -5.2
in Clc1ccccc1 | -5.37
in FC(F)(F)C(F)(F)C(F)(F)C(F)(F)C(F)(F)C(F)(F)C(F)(F)C(F)(F)F | -3.5
in FC(F)(F)C(F)(F)C(F)(F)C(F)(F)C(F)(F)C(F)(F)F | -3.53
in Fc1ccccc1 | -5.22
in ICI | -3.85
in N#Cc1ccccc1 | -4.57
in NC=O | -1.81
in Nc1ccccc1 | -3.93
in O | 2.14
in O=C1CCCCC1 | -4.85
in O=C1CCCO1 | -3.62
in O=CN1CCOCC1 | -3.52
in O=Cc1ccco1 | -3.95
in OCCCCCO | -3.47
in OCCCCO | -3.26
in OCCCO | -2.9
in OCCO | -2.11
in OCCOCCO | -2.81
in OCCOCCOCCO | -3.01
in OCc1ccccc1 | -4.14
in S=C=S | -5.65
in c1ccccc1 | -5.35
in c1ccncc1 | -4.73
